Assay results as given in article PMC8284453 (Antimicrobial Agents and Chemotherapy, 2021).
In brackets after ≈: the same amount, converted by molar mass. Read-outs that look alike come from different tables or passages of the source.

What was measured:
[1] = tested on: K. pneumoniae ATCC BAA-2814 expressing KPC-3, SHV-11, and TEM; details: approved QC range; ref CLSI AST Subcommittee, February 2021; cited from earlier work
[2] = tested on: E. coli NCTC 13353 expressing CTX-M-15; details: approved QC range; ref CLSI AST Subcommittee, February 2021; cited from earlier work
[3] = tested on: K. pneumoniae UNT-023 expressing KPC, TEM-1, and SHV-11; experiment: animal or person; type: in vivo; details: Klebsiella pneumoniae, in Mus musculus, 1 h
[4] = in vivo, cited from earlier work
[5] = cited from earlier work
[6] = tested on: K. pneumoniae ATCC BAA-1705 expressing KPC-2, SHV, and TEM; details: approved QC range; ref CLSI AST Subcommittee, February 2021; cited from earlier work
[7] = tested on: K. pneumoniae 1434760; experiment: Impact of pH and human urine on MIC; type: cell-based
Experimental: (§1) Studies were conducted by IHMA, Schaumberg, IL. […] MICs were determined by broth […] methodology ([30], [31]). […] Antibacterial panels containing 100 μl of antibacterial solution were inoculated with the adjusted inocula using 95-prong inoculator sets. Test panels were read visually after incubation following CLSI guidelines for each organism. MIC values corresponded to the first well with no visible growth.

[8] = tested on: K. pneumoniae 1266420; experiment: Impact of pH and human urine on MIC; type: cell-based; details: Klebsiella pneumoniae
Experimental: as §1

[9] = tested on: K. pneumoniae ATCC BAA-1705; experiment: Impact of pH and human urine on MIC; type: cell-based; details: Klebsiella pneumoniae, ATCCBAA1705, read-out: Median or modal MIC
Experimental: as §1

[10] = tested on: E. coli 1480076; experiment: Impact of pH and human urine on MIC; type: cell-based
Experimental: as §1

[11] = tested on: E. coli ATCC 25922; experiment: Impact of pH and human urine on MIC; type: cell-based; details: Escherichia coli, ATCC25922, read-out: Median or modal MIC
Experimental: as §1

[12] = tested on: K. pneumoniae ATCC 700603; experiment: Impact of pH and human urine on MIC; type: cell-based; details: Klebsiella pneumoniae, ATCC700603, read-out: Median or modal MIC
Experimental: as §1

[13] = tested on: strains utilized in time-kill studies; experiment: MIC summary across strains utilized in time-kill studies; type: cell-based, E. coli, E. cloacae, K. pneumoniae; details: across all four strains
[14] = tested on: K. pneumoniae UNT-023 expressing KPC, TEM-1, and SHV-11; experiment: microbe, parasite or virus in culture; type: cell-based; details: Klebsiella pneumoniae
[15] = tested on: strains of Enterobacterales expressing serine β-lactamases; experiment: organism not typed; type: cell-based
[16] = tested on: 1,066 clinical urinary tract infection isolates resistant to both amoxicillin-clavulanic acid and levofloxacin; details: VNRX-5236 fixed at 4 μg/ml in the combination; cited from earlier work

Nc1nc(/C(=C/CC(=O)O)C(=O)N[C@@H]2C(=O)N3C(C(=O)O)=CCS[C@H]23)cs1 [CTB, ceftibuten]
QC range (MIC) [1]: 8 to 32 µg/mL | QC range (MIC) [2]: 16 to 64 µg/mL | ED50 [3]: > 128 mg/kg | oral bioavailability ([4]; po): ~65% | plasma half-life [4]: ~2.4 h | renal excretion [4]: ~56% | human plasma protein binding [5]: ~60% | QC range (MIC) [6]: 4 to 32 µg/mL | MIC ([7]; Klebsiella pneumoniae, 1434760, pH 6, read-out: Median or modal MIC): > 128 µg/mL | MIC ([7]; Klebsiella pneumoniae, 1434760, pH 7.2, read-out: Median or modal MIC): 128 µg/mL (≈ 312 µM) | MIC ([7]; Klebsiella pneumoniae, 1434760, read-out: Median or modal MIC): > 128 µg/mL | MIC ([8]; Human urine, pH 6, read-out: Median or modal MIC): 64 µg/mL (≈ 156 µM) | MIC ([8]; Human urine, pH 7.2, read-out: Median or modal MIC): 16 µg/mL (≈ 39 µM) | MIC ([8]; MHII broth, read-out: Median or modal MIC): 32 µg/mL (≈ 78 µM) | MIC ([9]; Human urine, pH 6): 2 µg/mL (≈ 4.87 µM) | MIC ([9]; Human urine, pH 7.2): 2 µg/mL (≈ 4.87 µM) | MIC ([9]; MHII broth): 8 µg/mL (≈ 19.5 µM) | MIC ([10]; Escherichia coli, 1480076, read-out: Median or modal MIC): 128 µg/mL (≈ 312 µM) | MIC ([10]; Escherichia coli, 1480076, Human urine, pH 6, read-out: Median or modal MIC): 32 µg/mL (≈ 78 µM) | MIC ([10]; Escherichia coli, 1480076, Human urine, pH 7.2, read-out: Median or modal MIC): 32 µg/mL (≈ 78 µM) | MIC ([11]; Human urine, pH 6): 0.25 µg/mL (≈ 0.609 µM) | MIC ([11]; Human urine, pH 7.2): 0.12 µg/mL (≈ 0.292 µM) | MIC ([11]; MHII broth): 0.25 µg/mL (≈ 0.609 µM) | MIC ([12]; Human urine, pH 6): 1 µg/mL (≈ 2.44 µM) | MIC ([12]; Human urine, pH 7.2): 0.5 µg/mL (≈ 1.22 µM) | MIC ([12]; MHII broth): 0.5 µg/mL (≈ 1.22 µM) | MIC range [13]: 16 to 128 µg/mL | MIC [14]: 64 µg/mL (≈ 156 µM) | MIC50 [15]: 0.12 µg/mL (≈ 0.292 µM) | MIC90 [15]: 1 µg/mL (≈ 2.44 µM) | MIC90 [16]: > 32 µg/mL
